The subject of series [1] is NFKB, Caspases (Caspase 9). The experiment in a line: Western blot protein expression. Type of series: cell-based. The note with it: compared to the negative control. (Immunoblotting shows a protein as a band on a membrane.)
For a further series, the system named is MDAMB231 cells. The experiment in a line: Lactate dehydrogenase (LDH) release. Type of series: cell-based. The note with it: MDAMB231, 24, 48 and 72 h. The method, then:
The lactate dehydrogenase (LDH) is a cytosolic enzyme present in most mammalian cells.
For LDH release protocol, after treatments were performed for the MTT protocol, 20 µL of the supernatant of each well was transferred to an EIA/RIA plate. Then, 20 µL/well of the Reaction Mixture from the CyQUANT™ LDH Cytotoxicity Assay kit and reaction was incubated at RT for 30 minutes in the dark. Then, 60 µL/well of the Stop Solution from the kit was added and plate was read in a spectrophotometer at both 490 nm and 650 nm.
The calculation of LDH release was performed as follows: • 1. The absorbance measured at 650 nm was subtracted from the absorbance measured at 490 nm. • 2. This formula was applied: […]
O.D.: optical density captured by spectrophotometer NOTE: The Basal O.D. is the one found in the blank wells (only reaction mixture and stop solution).
In order to determine the effects of the peptide in LDH release, autophagy induction and apoptosis/necrosis profile of MDAMB231 cell line, the Analysis of Variance (ANOVA) with Dunnet and Bonferroni post-hoc tests were applied to the significance of 5% in GraphPad Prism software version 6.0.

Another series has as its system HDFa benign cell line. The experiment in a line: BrdU cellular proliferation, benign cells. Type of series: cell-based. The note with it: maximum time of exposure. The protocol: The method of Bomodeoxyuridine (BrdU) quantification was carried out according to the Standard Operational Protocols Nos. 10 and 12 of the Laboratory of Clinical Cytology of the Faculty of Pharmaceutical Sciences of Ribeirao Preto (FCFRP -USP). In this method, for the BrdU quantification, cells were plated in 96-well sterile plates for cell culture with a cap at the density of 2 × 10^4 cells/well for treatments lasting 24 h and 1 × 10^4 cells/well for treatments with 48 h or more, completing the volume to 100 µL with culture medium. The plates were incubated for 8-16 h in an incubator at 37° C. and 5% CO2. The next day, the treatments were prepared in culture medium, applying 200 µL/well at the desired concentration, and the plates were placed in an incubator at 37° C. and 5% CO2 for the duration of treatment. After the treatment period, 20 µL/well of a BrdU-labeling was added and incubated at 37° C. and 5% CO2 for 2.5 h. After incubation with BrdU labeling, the plates were stored at 2-4° C. up to 1 week. […] Substrate was developed for 15 minutes and reaction was stopped with HCl 6 M solution and read in a spectrophotometer at 495 nm with endpoint.
The calculation of cell proliferation was performed using the formula: […]
O.D.: optical density captured by spectrophotometer NOTE: The Basal O.D. is the one found in the blank wells. […]

The subject of series [2] is benign skin cells - fibroblasts (HDFa). The experiment in a line: MTT cell viability, benign fibroblasts. Type of series: cell-based. To be noted: HDFa fibroblasts, 24, 48 and 72 h. The method, then: For the method of MTT, the cells were plated in 96-well sterile plates for cell culture with a cap at the density of 2 × 10^4 cells/well for treatments lasting 24 h and 1 × 10^4 cells/well for treatments lasting 48 h or more, completing the volume to 100 µL with culture medium. The plates were incubated for 8-16 h in an incubator at 37° C. and 5% CO2. The next day, the treatments were prepared in culture medium, applying 200 µL/well at the desired concentration, and the plates were placed in an incubator at 37° C. and 5% CO2for the duration of treatment. After the treatment period, 20 µL/well of a MTT solution was added in PBS (1×) at a concentration of 5 mg/mL, and the dye was incubated at 37° C. and 5% CO2 for 2.5 h. After incubation with MTT, Formazan salts were solubilized with the addition of 200 µL of dimethylsulfoxide solution (DMSO): isopropanol (3:1) and agitated for at least 15 minutes at room temperature. After complete dissolution of the salts, the absorbance was read in a spectrophotometer at 570 nm with endpoint protocol.
The calculation of cell viability was performed using the formula: […]
O.D.: optical density captured by spectrophotometer
NOTE: The Basal O.D. is the one found in the blank wells. […]

The test system of series [3] is MDA-MB-231 cells implanted in zebrafish larvae. The experiment in a line: Zebrafish xenograft model of MDAMB231 (primary tumor and metastasis). Type of series: in vivo. The protocol:
Transgenic Tg(fli1:EGFP)y1 zebrafish embryos were raised at 28° C. for 48 hours in E3 embryo medium 0.2 mM 1-Phenyl-2-Thiourea aka PTU. […] MDA-MB-231 cells were labeled with Dil red fluorescent dye. Approximately 700 Dil Labeled cancer cells were subcutaneously co-implanted into the perivitelline space of 2 days old larvae ± 3-NantC peptide at […]. Larvae in which tumor cells had been inadvertently injected into circulation or larvae with erroneous implantation of the tumor in the yolk rather than the perivitelline space were excluded from the study. Selected tumor bearing embryos were sorted into experimental groups (20 embryos/group), and pictures of primary tumors were taken right after injection. Doxorubicin treatment was added to embryo water at 2.5 µg/mL according to the study plan. Tumor-bearing embryos were incubated in E3/PTU medium for 72 h at 36° C. After incubation, pictures of the primary tumors and the CVP were taken using a red fluorescent filter. Larvae that died or were lost by other means during the study were excluded from the final analysis.
Images obtained right after implantation (day 0) and after 72 h incubation (day 3) were analyzed by using in-house developed software. Tumor growth regression was calculated and normalized to the negative control group. The number of metastasized cells was counted manually. One-way ANOVA was performed followed by two-tailed Student’s t-test. Definitive outliers were detected using the ROUT method with a Q=1%. Graphs and example images, and experimental data were obtained/analyzed by using GraphPad Prism v9.0.2.

Take `CSCC[C@H](N)C(=O)N[C@@H](Cc1ccccc1)C(=O)N[C@@H](Cc1ccc(O)cc1)C(=O)N1CCC[C@H]1C(=O)N[C@@H](CC(=O)O)C(=O)N[C@@H](CO)C(=O)N[C@@H](CCCNC(=N)N)C(=O)N[C@@H](CS)C(=O)N[C@@H](CCCNC(=N)N)C(=O)NCC(=O)N1CCC[C@H]1C(=O)N[C@@H](CO)C(=O)N[C@@H](CCC(=O)O)C(=O)N[C@H](C(=O)O)[C@@H](C)O` [3-NAntC, [H]-MFYPDSRCRGPSET-[OH]]: in series [1], the “activation of Caspases, namely Caspase 9” value is recorded as “greater activation” and the “activation of pro-survival signals such as NFKB” value is given as “may inhibit the activation”. Further, the LDH release entry in the series on MDAMB231 cells is “does not show any significant increase”. In addition, the “effect on proliferation of benign cells (BrdU)” value in the series with HDFa benign cell line is listed as “did not alter the proliferation”. In addition, in series [2], the “effect on viability of benign skin cells (MTT)” value is recorded as “not decreasing the viability”. In addition, the “decrease of metastatic cells” value in series [3] (75 and 125 mg/mL) is on record as “about 60%”. In addition, the “decrease of tumor cells (primary tumor)” value in series [3] (72 h, 3-NantC co-implanted at 75, 100 or 125 mg/mL, Doxorubicin 2.5 µg/mL in embryo water) is listed as 75%. Besides, the “decrease in metastatic cells” value in series [3] (very low concentrations (FIG. 17)) is listed as “about 40%”.

(Values after patent US20230364204A1, “Bioactive Peptides, Compositions, Production Process, and Use of Bioactive Peptides as Anti-Tumoral Agents” (priority 2022, published 2023).)
